Laboratory results published in US5153352A, “Process for preparation of intermediates of carbocyclic nucleoside analogs” (priority 1990, dated 1992).
Values after ≈ are worked out from the molar mass of the structure shown.

Key:
[1] = tested on: duck hepatitis B virus (DHBV); assay: efficacy against hepatitis B virus in vivo in ducklings; set-up: species or system Peking duckling infected with duck hepatitis B virus
Protocol: The test method is an adaptation of the method of Smee, et al., Antimicrob. Agents Chemotherap. 27 277 (1985). The serum level of duck hepatitis B virus (DHBV) DNA was monitored in 6 infected Peking ducklings from age 6 days to age 27 days. Four ducklings were treated with 70 mg/kg/day IP, b.i.d. of the test compound as a 3 mg/ml solution in 0.9% aqueous NaCl on days 10-17. Two control ducklings were treated with 23 ml/kg/day IP, b.i.d. of 0.9% aqueous NaCl on days 10-17. The level of DHBV DNA in the duckling serum was measured daily.

[2] = tested on: Vero cells; settings: monkey
[3] = tested on: Varicella-Zoster Virus; assay: microbe, parasite or virus in culture; format: cell-based, Varicella-Zoster virus (clinical isolate DM625); settings: Human alphaherpesvirus 3, Fibroblast, 120 h
[4] = tested on: mice; assay: toxicity in uninfected mice (Herpesvirus 1 study); format: in vivo, mouse; settings: 7 doses
Protocol: Four-week-old female outbred Swiss mice (CD 1, VAF+, Charles River Labs) were housed 5 per Microisolator® cage. Feed and water were supplied ad libitum. Fifteen mice were randomly assigned to each of the following treatment groups:
Test compounds were diluted in 0.4% carboxymethylcellulose (CMC) prepared in phosphate buffered saline (PBS) at concentrations consistent with dosing at 0.1 ml per 10 q of body weight. Compounds were administered subcutaneously once daily for a total of 7 doses. Five mice in each treatment group served as uninfected toxicity controls. The remaining ten mice in each group were challenged intraperitoneally with an LD90 dose of the twelfth in vivo passage of Herpesvirus 1 (strain 123). Virus challenge was administered two hours after the first dose of compound was given. Mortality was monitored daily for 21 days. The mortality rates, average day of death, geometric mean time to death and virus rating were calculated for each treatment group.

[5] = in vitro; settings: monkey, vero cells, MTC (minimum drug concentration causing any cytotoxicity)
[6] = compound cytotoxicity in ATH8 cells (HIV CPE inhibition assay); format: cell-based; settings: human, read-out: MTC
Protocol: The ATH8 human T-cell line expresses high levels of the CD4 surface antigen and is quite sensitive to the cytopathogenic effect (CPE) of HIV. The cells were propagated in RPMI 1640 medium supplemented with 4mM glutamine, 15% heat-inactivated fetal bovine serum (Biocell), antibiotics (50 units of penicillin and […] of streptomycin per ml), and 50 units of recombinant-derived human interleukin-2 (ala-125; AMGen Biologicals) per ml.
ATH8 cells were used as the primary target in the HIV induced CPE inhibition assay. Cells were treated with polybrene (2 ug/ml in growth medium) for 30 minutes at 37° C., then collected by gentle centrifugation (40×g for 15 minutes at room temperature) and resuspended in clarified (8000×g for 15 minutes at 4° C.) supernate freshly harvested from 48 hours post passage H9/HTL IIIB cells. Following a 60-minute adsorption period at 37° C., the cells were dispensed into the U-bottom wells of 96-well trays (1×10^4 cells in 0.1 ml per well). […] Test compounds were evaluated at seven half-log dilutions ranging from 100 uq/ml to 0.1 uq/ml. […]
Between 7 and 10 days post infection, all wells were visually monitored for the degree of CPE inhibition as reflected by cell pellet size, and aliquots were taken from selected wells for determination of cell number and viability (based on trypan blue dye exclusion).

Nc1nc2c(ncn2C2CC(CO)C2CO)c(=O)[nH]1 (centres unmarked) [Example 1I, 9-(2',3'-Bis(hydroxymethyl)cyclobutyl)guanine]
Serum DHBV DNA ([1]; duck 1, age 6 days, before treatment): 187 ng/mL | Serum DHBV DNA ([1]; duck 1, age 7 days, before treatment): 156 ng/mL | Serum DHBV DNA ([1]; duck 1, age 8 days, before treatment): 168 ng/mL | Serum DHBV DNA ([1]; duck 1, age 9 days, before treatment): 233 ng/mL | Serum DHBV DNA ([1]; duck 1, age 10 days, 70 mg/kg/day IP days 10-17): 213 ng/mL | Serum DHBV DNA ([1]; duck 1, age 11 days, 70 mg/kg/day IP days 10-17): 155 ng/mL | Serum DHBV DNA ([1]; duck 1, age 12 days, 70 mg/kg/day IP days 10-17): 64 ng/mL | Serum DHBV DNA ([1]; duck 1, age 13 days, 70 mg/kg/day IP days 10-17): 11 ng/mL | Serum DHBV DNA ([1]; duck 1, age 14 days, 70 mg/kg/day IP days 10-17): 6 ng/mL | Serum DHBV DNA ([1]; duck 1, age 15 days, 70 mg/kg/day IP days 10-17): < 1 ng/mL | Serum DHBV DNA ([1]; duck 1, age 16 days, 70 mg/kg/day IP days 10-17): < 1 ng/mL | Serum DHBV DNA ([1]; duck 1, age 17 days, 70 mg/kg/day IP days 10-17): < 1 ng/mL | Serum DHBV DNA ([1]; duck 1, age 18 days, 70 mg/kg/day IP days 10-17): < 1 ng/mL | Serum DHBV DNA ([1]; duck 1, age 19 days, 70 mg/kg/day IP days 10-17): < 1 ng/mL | Serum DHBV DNA ([1]; duck 1, age 20 days, 70 mg/kg/day IP days 10-17): < 1 ng/mL | Serum DHBV DNA ([1]; duck 1, age 21 days, 70 mg/kg/day IP days 10-17): < 1 ng/mL | Serum DHBV DNA ([1]; duck 1, age 22 days, 70 mg/kg/day IP days 10-17): 3 ng/mL | Serum DHBV DNA ([1]; duck 1, age 23 days, 70 mg/kg/day IP days 10-17): 12 ng/mL | Serum DHBV DNA ([1]; duck 1, age 24 days, 70 mg/kg/day IP days 10-17): 16 ng/mL | Serum DHBV DNA ([1]; duck 1, age 25 days, 70 mg/kg/day IP days 10-17): 31 ng/mL | Serum DHBV DNA ([1]; duck 1, age 26 days, 70 mg/kg/day IP days 10-17): 71 ng/mL | Serum DHBV DNA ([1]; duck 1, age 27 days, 70 mg/kg/day IP days 10-17): 134 ng/mL | Serum DHBV DNA ([1]; duck 2, age 6 days, before treatment): 143 ng/mL | Serum DHBV DNA ([1]; duck 2, age 7 days, before treatment): 111 ng/mL | Serum DHBV DNA ([1]; duck 2, age 8 days, before treatment): 121 ng/mL | Serum DHBV DNA ([1]; duck 2, age 9 days, before treatment): 102 ng/mL | Serum DHBV DNA ([1]; duck 2, age 10 days, 70 mg/kg/day IP days 10-17): 120 ng/mL | Serum DHBV DNA ([1]; duck 2, age 11 days, 70 mg/kg/day IP days 10-17): 61 ng/mL | Serum DHBV DNA ([1]; duck 2, age 12 days, 70 mg/kg/day IP days 10-17): 27 ng/mL | Serum DHBV DNA ([1]; duck 2, age 13 days, 70 mg/kg/day IP days 10-17): 2 ng/mL | Serum DHBV DNA ([1]; duck 2, age 14 days, 70 mg/kg/day IP days 10-17): 1 ng/mL | Serum DHBV DNA ([1]; duck 2, age 15 days, 70 mg/kg/day IP days 10-17): < 1 ng/mL | Serum DHBV DNA ([1]; duck 2, age 16 days, 70 mg/kg/day IP days 10-17): < 1 ng/mL | Serum DHBV DNA ([1]; duck 2, age 17 days, 70 mg/kg/day IP days 10-17): < 1 ng/mL | Serum DHBV DNA ([1]; duck 2, age 18 days, 70 mg/kg/day IP days 10-17): < 1 ng/mL | Serum DHBV DNA ([1]; duck 2, age 19 days, 70 mg/kg/day IP days 10-17): < 1 ng/mL | Serum DHBV DNA ([1]; duck 2, age 20 days, 70 mg/kg/day IP days 10-17): < 1 ng/mL | Serum DHBV DNA ([1]; duck 2, age 21 days, 70 mg/kg/day IP days 10-17): < 1 ng/mL | Serum DHBV DNA ([1]; duck 2, age 22 days, 70 mg/kg/day IP days 10-17): < 1 ng/mL | Serum DHBV DNA ([1]; duck 2, age 23 days, 70 mg/kg/day IP days 10-17): < 1 ng/mL | Serum DHBV DNA ([1]; duck 2, age 24 days, 70 mg/kg/day IP days 10-17): < 1 ng/mL | Serum DHBV DNA ([1]; duck 2, age 25 days, 70 mg/kg/day IP days 10-17): 2 ng/mL | Serum DHBV DNA ([1]; duck 2, age 26 days, 70 mg/kg/day IP days 10-17): 2 ng/mL | Serum DHBV DNA ([1]; duck 2, age 27 days, 70 mg/kg/day IP days 10-17): 7 ng/mL | Serum DHBV DNA ([1]; duck 3, age 6 days, before treatment): 520 ng/mL | Serum DHBV DNA ([1]; duck 3, age 7 days, before treatment): 311 ng/mL | Serum DHBV DNA ([1]; duck 3, age 8 days, before treatment): 277 ng/mL | Serum DHBV DNA ([1]; duck 3, age 9 days, before treatment): 412 ng/mL | Serum DHBV DNA ([1]; duck 3, age 10 days, 70 mg/kg/day IP days 10-17): 377 ng/mL | Serum DHBV DNA ([1]; duck 3, age 11 days, 70 mg/kg/day IP days 10-17): 130 ng/mL | Serum DHBV DNA ([1]; duck 3, age 12 days, 70 mg/kg/day IP days 10-17): 77 ng/mL | Serum DHBV DNA ([1]; duck 3, age 13 days, 70 mg/kg/day IP days 10-17): 16 ng/mL | Serum DHBV DNA ([1]; duck 3, age 14 days, 70 mg/kg/day IP days 10-17): 2 ng/mL | Serum DHBV DNA ([1]; duck 3, age 15 days, 70 mg/kg/day IP days 10-17): 2 ng/mL | Serum DHBV DNA ([1]; duck 3, age 16 days, 70 mg/kg/day IP days 10-17): < 1 ng/mL | Serum DHBV DNA ([1]; duck 3, age 17 days, 70 mg/kg/day IP days 10-17): < 1 ng/mL | Serum DHBV DNA ([1]; duck 3, age 18 days, 70 mg/kg/day IP days 10-17): < 1 ng/mL | Serum DHBV DNA ([1]; duck 4, age 6 days, before treatment): 288 ng/mL | Serum DHBV DNA ([1]; duck 4, age 7 days, before treatment): 215 ng/mL | Serum DHBV DNA ([1]; duck 4, age 8 days, before treatment): 256 ng/mL | Serum DHBV DNA ([1]; duck 4, age 9 days, before treatment): 311 ng/mL | Serum DHBV DNA ([1]; duck 4, age 10 days, 70 mg/kg/day IP days 10-17): 333 ng/mL | Serum DHBV DNA ([1]; duck 4, age 11 days, 70 mg/kg/day IP days 10-17): 132 ng/mL | Serum DHBV DNA ([1]; duck 4, age 12 days, 70 mg/kg/day IP days 10-17): 21 ng/mL | Serum DHBV DNA ([1]; duck 4, age 13 days, 70 mg/kg/day IP days 10-17): 2 ng/mL | Serum DHBV DNA ([1]; duck 4, age 14 days, 70 mg/kg/day IP days 10-17): 1 ng/mL | Serum DHBV DNA ([1]; duck 4, age 15 days, 70 mg/kg/day IP days 10-17): 1 ng/mL | Serum DHBV DNA ([1]; duck 4, age 16 days, 70 mg/kg/day IP days 10-17): 1 ng/mL | Serum DHBV DNA ([1]; duck 4, age 17 days, 70 mg/kg/day IP days 10-17): < 1 ng/mL | Serum DHBV DNA ([1]; duck 4, age 18 days, 70 mg/kg/day IP days 10-17): < 1 ng/mL | Serum DHBV DNA ([1]; duck 4, age 19 days, 70 mg/kg/day IP days 10-17): < 1 ng/mL | Serum DHBV DNA ([1]; duck 4, age 20 days, 70 mg/kg/day IP days 10-17): < 1 ng/mL | Serum DHBV DNA ([1]; duck 4, age 21 days, 70 mg/kg/day IP days 10-17): < 1 ng/mL | Serum DHBV DNA ([1]; duck 4, age 22 days, 70 mg/kg/day IP days 10-17): < 1 ng/mL | Serum DHBV DNA ([1]; duck 4, age 23 days, 70 mg/kg/day IP days 10-17): < 1 ng/mL | Serum DHBV DNA ([1]; duck 4, age 24 days, 70 mg/kg/day IP days 10-17): < 1 ng/mL | Serum DHBV DNA ([1]; duck 4, age 25 days, 70 mg/kg/day IP days 10-17): < 1 ng/mL | death of treated ducks ([1]; ducks 3 and 4, 70 mg/kg/day IP b.i.d. days 10-17): ducks 3 and 4 died on day 18 and day 26, respectively | MTC (minimum drug concentration causing any cytotoxicity) [2]: 320 µg/mL | EC50 ([3]; VZV plaque formation, human foreskin fibroblasts, read-out: MIC50): 1.4 µg/mL (≈ 5.28 µM) | inhibition at 0.1 µg/mL ([3]; VZV, 0.1 ug/ml, read-out: Plaque Reduction): 11.5% | inhibition at 0.32 µg/mL ([3]; VZV, 0.32 ug/ml, read-out: Plaque Reduction): 18% | inhibition at 1 µg/mL ([3]; VZV, 1.0 ug/ml, read-out: Plaque Reduction): 47.1% | inhibition at 3.2 µg/mL ([3]; VZV, 3.2 ug/ml, read-out: Plaque Reduction): 97.7% | inhibition at 10 µg/mL ([3]; VZV, 10 ug/ml, read-out: Plaque Reduction): 100% | inhibition at 32 µg/mL ([3]; VZV, 32 ug/ml, read-out: Plaque Reduction): 100% | inhibition at 100 µg/mL ([3]; read-out: Plaque Reduction): 100% | No. Dead/No. Uninfected ([4]; 3.2 mg/kg s.c. once daily): 0/5 | No. Dead/No. Uninfected ([4]; 10 mg/kg s.c. once daily): 0/5 | No. Dead/No. Uninfected ([4]; 32 mg/kg s.c. once daily): 0/3 | MCC [5]: 320 µg/mL

Nc1ncnc2c1ncn2C1CC(CO)C1CO (centres unmarked) [Example 4C, 9-(2',3'-Bis(hydroxymethyl)cyclobutyl)adenine]
MCC [6]: 3.2 µg/mL
